Measurements taken from PubChem BioAssay AID2060627 (Molecular Pharmacology Branch, DTP, NCI, 2025).

Test system: 156681-154-R-J1-PDC complex spheroid viability
Test: Anticancer human tumor 156681-154-R-J1-PDC patient-derived melanoma cell line growth inhibition [CLK]
Settings: for IC50: curve of first compound; for viability, T/C: stronger effect = lower value
Method in brief: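 Patient-derived tumor cells grown as complex spheroids with HUVEC endothelial cells and mesenchymal stem cells, treated with drug combinations. Concentrations descend in half-log steps from near clinical Cmax, or from 10 microM if Cmax unknown.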

[1] = second compound 0.0316 µM, first compound 0.0316 µM
[2] = second compound 0.0316 µM, first compound 0.1 µM
[3] = second compound 0.0316 µM, first compound 0.316 µM
[4] = second compound 0.0316 µM, first compound 1 µM
[5] = second compound 0.0316 µM, first compound 3.16 µM
[6] = second compound 0.0316 µM, first compound 10 µM
[7] = second compound 0.1 µM, first compound 0.0316 µM
[8] = second compound 0.1 µM, first compound 0.1 µM
[9] = second compound 0.1 µM, first compound 0.316 µM
[10] = second compound 0.1 µM, first compound 1 µM
[11] = second compound 0.1 µM, first compound 3.16 µM
[12] = second compound 0.1 µM, first compound 10 µM
[13] = second compound 0.316 µM, first compound 0.0316 µM
[14] = second compound 0.316 µM, first compound 0.1 µM
[15] = second compound 0.316 µM, first compound 0.316 µM
[16] = second compound 0.316 µM, first compound 1 µM
[17] = second compound 0.316 µM, first compound 3.16 µM
[18] = second compound 0.316 µM, first compound 10 µM
[19] = second compound 1 µM, first compound 0.0316 µM
[20] = second compound 1 µM, first compound 0.1 µM
[21] = second compound 1 µM, first compound 0.316 µM
[22] = second compound 1 µM, first compound 1 µM
[23] = second compound 1 µM, first compound 3.16 µM
[24] = second compound 1 µM, first compound 10 µM
[25] = second compound 3.16 µM, first compound 0.0316 µM
[26] = second compound 3.16 µM, first compound 0.1 µM
[27] = second compound 3.16 µM, first compound 0.316 µM
[28] = second compound 3.16 µM, first compound 1 µM
[29] = second compound 3.16 µM, first compound 3.16 µM
[30] = second compound 3.16 µM, first compound 10 µM
[31] = second compound 10 µM, first compound 0.0316 µM
[32] = second compound 10 µM, first compound 0.1 µM
[33] = second compound 10 µM, first compound 0.316 µM
[34] = second compound 10 µM, first compound 1 µM
[35] = second compound 10 µM, first compound 3.16 µM
[36] = second compound 10 µM, first compound 10 µM
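Further: spheroids exposed to the agents for seven days.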
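Wherever viability, T/C is given: 100% = DMSO vehicle control viability.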

In the case of `C=CC(=O)N1CCN(c2nc(=O)n(-c3c(C)ccnc3C(C)C)c3nc(-c4c(O)cccc4F)c(F)cc23)C(C)C1` (stereo unspecified) + CNC(=O)c1ccc(Nc2nc(OC3CCCC3)c3c(-c4ccc5nc(C)oc5c4)c[nH]c3n2)c(OC)c1, the IC50 (second compound 0.0316 µM) is reported as over 10000 nM, the IC50 (second compound 0.1 µM) is reported as over 10000 nM and the IC50 (second compound 0.316 µM) is reported as 5090 nM. It also gave an IC50 (second compound 1 µM) of under 31.6 nM, an IC50 (second compound 3.16 µM) of under 31.6 nM and an IC50 (second compound 10 µM) of under 31.6 nM. The viability, T/C [1] was 83.4%, the viability, T/C [2] was 105% and the viability, T/C [3] was 91.4%. The viability, T/C [4] was 106%, the viability, T/C [5] was 129% and the viability, T/C [6] was 82.7%. The viability, T/C [7] was 47.1%, the viability, T/C [8] was 67.9% and the viability, T/C [9] was 71.1%. It also gave a viability, T/C [10] of 58.5%, a viability, T/C [11] of 70.6% and a viability, T/C [12] of 36%. The viability, T/C [13] was 61.1%, the viability, T/C [14] was 71.6% and the viability, T/C [15] was 72.3%. For the same compound, the viability, T/C [16] was 71.2%, the viability, T/C [17] was 65.6% and the viability, T/C [18] was 27.2%. The viability, T/C [19] was 51.9%, the viability, T/C [20] was 51% and the viability, T/C [21] was 36.9%. The viability, T/C [22] was 52.3%, the viability, T/C [23] was 49% and the viability, T/C [24] was 14.8%. It also gave a viability, T/C [25] of 35%, a viability, T/C [26] of 40.4% and a viability, T/C [27] of 33.4%. For the same compound, the viability, T/C [28] was 44.2%, the viability, T/C [29] was 40.1% and the viability, T/C [30] was 23.4%. The viability, T/C [31] was 41.6%, the viability, T/C [32] was 30.6% and the viability, T/C [33] was 37.4%. The viability, T/C [34] was 36.3%, the viability, T/C [35] was 30.9% and the viability, T/C [36] was 12.4%.

For `CCCS(=O)(=O)Nc1ccc(F)c(C(=O)c2c[nH]c3ncc(-c4ccc(Cl)cc4)cc23)c1F` + CNC(=O)c1ccc(Nc2nc(OC3CCCC3)c3c(-c4ccc5nc(C)oc5c4)c[nH]c3n2)c(OC)c1, the IC50 (second compound 0.0316 µM) was 4960 nM, the IC50 (second compound 0.1 µM) was 3870 nM and the IC50 (second compound 0.316 µM) was 2090 nM. The IC50 (second compound 1 µM) was under 31.6 nM, the IC50 (second compound 3.16 µM) was under 31.6 nM and the IC50 (second compound 10 µM) was under 31.6 nM. The viability, T/C [1] was 69%, the viability, T/C [2] was 81.1% and the viability, T/C [3] was 70.7%. The viability, T/C [4] was 113%, the viability, T/C [5] was 76.8% and the viability, T/C [6] was 8.32%. For the same compound, the viability, T/C [7] was 54.8%, the viability, T/C [8] was 57.4% and the viability, T/C [9] was 72.1%. The viability, T/C [10] was 63%, the viability, T/C [11] was 58.2% and the viability, T/C [12] was 10.1%. The viability, T/C [13] was 48%, the viability, T/C [14] was 58.8% and the viability, T/C [15] was 62.3%. For the same compound, the viability, T/C [16] was 58.7%, the viability, T/C [17] was 46.1% and the viability, T/C [18] was 14.4%. The viability, T/C [19] was 45.8%, the viability, T/C [20] was 48.7% and the viability, T/C [21] was 42.8%. It also gave a viability, T/C [22] of 40.3%, a viability, T/C [23] of 39.1% and a viability, T/C [24] of 12.5%. It also gave a viability, T/C [25] of 41.1%, a viability, T/C [26] of 29.7% and a viability, T/C [27] of 33.5%. It also gave a viability, T/C [28] of 34%, a viability, T/C [29] of 36.2% and a viability, T/C [30] of 13.8%. It also gave a viability, T/C [31] of 34.9%, a viability, T/C [32] of 34.3% and a viability, T/C [33] of 22.1%. The viability, T/C [34] was 32.5%, the viability, T/C [35] was 23.4% and the viability, T/C [36] was 12.2%.

Work on `COC1C=CCC(C)C(C)S(=O)(=O)NC(=O)c2ccc3c(c2)N(CC2CCC21)CC1(CCCc2cc(Cl)ccc21)CO3` (stereo unspecified) + CNC(=O)c1ccc(Nc2nc(OC3CCCC3)c3c(-c4ccc5nc(C)oc5c4)c[nH]c3n2)c(OC)c1 yielded an IC50 (second compound 0.0316 µM) of 1070 nM, an IC50 (second compound 0.1 µM) of 327 nM and an IC50 (second compound 0.316 µM) of 88.5 nM. For the same compound, the IC50 (second compound 1 µM) was under 31.6 nM, the IC50 (second compound 3.16 µM) was under 31.6 nM and the IC50 (second compound 10 µM) was under 31.6 nM. It also gave a viability, T/C [1] of 96.3%, a viability, T/C [2] of 93.1% and a viability, T/C [3] of 84.3%. The viability, T/C [4] was 54%, the viability, T/C [5] was 9.3% and the viability, T/C [6] was 1.52%. For the same compound, the viability, T/C [7] was 60.2%, the viability, T/C [8] was 57% and the viability, T/C [9] was 48.8%. The viability, T/C [10] was 36.5%, the viability, T/C [11] was 12.5% and the viability, T/C [12] was 1.5%. It also gave a viability, T/C [13] of 55.6%, a viability, T/C [14] of 49.5% and a viability, T/C [15] of 35.6%. It also gave a viability, T/C [16] of 20.6%, a viability, T/C [17] of 5.31% and a viability, T/C [18] of 2.16%. The viability, T/C [19] was 43.4%, the viability, T/C [20] was 42.6% and the viability, T/C [21] was 24.4%. For the same compound, the viability, T/C [22] was 19.5%, the viability, T/C [23] was 8.99% and the viability, T/C [24] was 2.33%. The viability, T/C [25] was 35.7%, the viability, T/C [26] was 39% and the viability, T/C [27] was 15.3%. For the same compound, the viability, T/C [28] was 15.1%, the viability, T/C [29] was 7.52% and the viability, T/C [30] was 3.33%. For the same compound, the viability, T/C [31] was 30.4%, the viability, T/C [32] was 32.5% and the viability, T/C [33] was 16.2%. The viability, T/C [34] was 13.8%, the viability, T/C [35] was 10.4% and the viability, T/C [36] was 5.15%.
